Experimental data as given in patent US12616201B2, “Herbicidal compositions comprising isoxaflutole” (BASF SE, priority 2024, dated 2026).

Key:
Abuthilon theophrasti = experiment: Post-emergence application in field trials, ABUTH; format: in vivo; settings: ABUTH growth stage 14-16
Method: (§1) In the examples below, using the method of S. R. Colby (1967) “Calculating synergistic and antagonistic responses of herbicide combinations”, Weeds 15, p. 22ff., the value E, which is expected if the activity of the individual active compounds is only additive, was calculated:
(§2) [formula] • where • X=percent activity using active herbicide A at an application rate a; • Y=percent activity using active herbicide B (i.e. isoxaflutole) at an application rate b; • E=expected activity (in %) by A+B at application rates a+b.
(§3) If the value found experimentally is higher than the value E calculated according to Colby, a synergistic effect is present.
(§4) On field test sites, natural weed infestation or seeded weeds were treated post-emergence of the weeds.
(§5) In the field trials, the weeds were treated as indicated below.
(§6) In the following experiments, the herbicidal activity for the individual herbicidal compositions (solo and mixture applications) was assessed at the indicated days after treatment (DAT). The assessments for the damage on undesired weeds caused by the composition was carried out using a scale from 0 to 100%, compared to the untreated control plants. Here, 0 means no damage and 100 means complete destruction of the plants.
(§7) Herbicide A-1 and isoxaflutole (240 g/l SC, Balance Flexx®) were, together with addition of 0.25 v/v % MSO (methylated sed oil) as adjuvant, formulated in water as distribution medium (water volume 200 l/ha) and sprayed with commercial flat fan nozzles.

HORVW = experiment: Post-emergence application in field trials, HORVW; format: in vivo, Hordeum vulgare; settings: HORVW height 20-25 cm, 100 g ai/ha
Method: as §1, §2, §3, §4, §5, §6
(§8) Herbicide A-1, isoxaflutole (240 g/l SC), saflufenacil (342 g/l) and pyroxasulfone were, together with addition of 0.25 v/v % MSO (methylated sed oil) as adjuvant, formulated in water as distribution medium (water volume 200 l/ha) and sprayed with commercial flat fan nozzles.

Euphorbia heterophylla = experiment: Post-emergence application in field trials, EPHHL; format: in vivo; settings: Table 1.1; EPHHL growth stage 35; 21 DAT; 100 g ai/ha
Method: as §1, §2, §3, §4, §5
(§9) In the following experiments, the herbicidal activity for the individual herbicidal compositions (solo and mixture applications) was assessed at the indicated days after treatment (DAT). The assessments for the damage on undesired weeds caused by the composition was carried out using a scale from 0 to 100%, compared to the untreated control plants. Here, 0 means no damage and 100 means complete destruction of the plants. […]

Hordeum vulgare = experiment: Post-emergence application in field trials, HORVX; format: in vivo; settings: HORVX growth stage 23-29
Method: as §1, §2, §3, §4, §5, §6, §7

Zea mays = experiment: Post-emergence application in field trials, ZEAMX; format: in vivo
Method: as §1, §2, §3, §4, §5, §6
(§10) Herbicide A-1 and isoxaflutole (240 g/l SC) were, together with addition of 0.25 v/v % MSO (methylated sed oil) as adjuvant, formulated in water as distribution medium (water volume 200 l/ha) and sprayed with commercial flat fan nozzles.
as §7
(§11) Herbicide A-1, isoxaflutole (240 g/l SC) and saflufenacil (342 g/l) were, together with addition of 0.25 v/v % MSO (methylated sed oil) as adjuvant, formulated in water as distribution medium (water volume 200 l/ha) and sprayed with commercial flat fan nozzles.
as §8

Lolium multiflorum = experiment: Post-emergence application in field trials, LOLMU; format: in vivo; settings: LOLMU height 20-25 cm, 100 g ai/ha
Method: as §1, §2, §3, §4, §5, §6, §8

Glycine max = experiment: Post-emergence application in field trials, GLXMA; format: in vivo; settings: GLXMA growth stage 13, 100 g ai/ha
Method: as §1, §2, §3, §4, §5, §6, §10

Amaranthus retroflexus = experiment: Post-emergence application in field trials, AMARE; format: in vivo
Method: as §1, §2, §3, §4, §5, §6, §7, §8

Spermacoce latifolia = experiment: Post-emergence application in field trials, BOILF; format: in vivo; settings: Table 1.1; BOILF growth stage 40; 21 DAT; 100 g ai/ha
Method: as §1, §2, §3, §4, §5, §6
Herbicide A-1 and isoxaflutole (75% WG) were, together with addition of 0.5 v/v % MSO (methylated sed oil) as adjuvant, formulated in water as distribution medium (water volume 200 l/ha) and sprayed with commercial flat fan nozzles.

Echinochloa crus-galli = experiment: Post-emergence application in field trials, ECHCG; format: in vivo
Method: as §1, §2, §3, §4, §5, §6, §10, §7, §11, §8

Setaria verticillata = experiment: Post-emergence application in field trials, SETVE; format: in vivo; settings: SETVE growth stage 21-23
Method: as §1, §2, §3, §4, §5, §6, §10, §7

Amaranthus hybridus = experiment: Post-emergence application in field trials, AMACH; format: in vivo; settings: Table 1.1; AMACH growth stage 35; 21 DAT; 100 g ai/ha
Method: as §1, §2, §3, §4, §5, §9

Datura stramonium = experiment: Post-emergence application in field trials, DATST; format: in vivo; settings: 100 g ai/ha
Method: as §1, §2, §3, §4, §5, §6, §10, §11

Ipomoea triloba = experiment: Post-emergence application in field trials, IPOTR; format: in vivo; settings: Table 1.1; IPOTR growth stage 35; 21 DAT; 100 g ai/ha
Method: as §1, §2, §3, §4, §5, §9

CS(=O)(=O)c1cc(C(F)(F)F)ccc1C(=O)c1cnoc1C1CC1 [B, isoxaflutole]
% herbicidal activity (Abuthilon theophrasti; Table 3.1, 7 DAT, 56 g ai/ha): 40% | % herbicidal activity (Abuthilon theophrasti; Table 3.2, 21 DAT, 56 g ai/ha): 45% | % herbicidal activity (Abuthilon theophrasti; Table 3.2, 21 DAT, 80 g ai/ha): 65% | % herbicidal activity (Abuthilon theophrasti; Table 3.4, 42 DAT, 56 g ai/ha): 45% | % herbicidal activity (Abuthilon theophrasti; Table 3.4, 42 DAT, 80 g ai/ha): 60% | % herbicidal activity (HORVW; Table 5.5, 21 DAT): 10% | % herbicidal activity (HORVW; Table 5.6, 28 DAT): 10% | % herbicidal activity (HORVW; Table 5.8, 21 DAT): 10% | % herbicidal activity (Euphorbia heterophylla): 22% | % herbicidal activity (Hordeum vulgare; Table 3.1, 7 DAT, 56 g ai/ha): 10% | % herbicidal activity (Hordeum vulgare; Table 3.1, 7 DAT, 80 g ai/ha): 10% | % herbicidal activity (Hordeum vulgare; Table 3.2, 21 DAT, 56 g ai/ha): 10% | % herbicidal activity (Hordeum vulgare; Table 3.2, 21 DAT, 80 g ai/ha): 10% | % herbicidal activity (Zea mays; Table 2.1, ZEAMX growth stage 15-16, 7 DAT, 100 g ai/ha): 10% | % herbicidal activity (Zea mays; Table 3.2, ZEAMX growth stage 15-16, 21 DAT, 56 g ai/ha): 0% | % herbicidal activity (Zea mays; Table 3.2, ZEAMX growth stage 15-16, 21 DAT, 80 g ai/ha): 0% | % herbicidal activity (Zea mays; Table 3.3, ZEAMX growth stage 15-16, 28 DAT, 56 g ai/ha): 0% | % herbicidal activity (Zea mays; Table 4.1, ZEAMX growth stage 15-16, height 25-30 cm, 7 DAT, 100 g ai/ha): 10% | % herbicidal activity (Zea mays; Table 5.12, 7 DAT, height 25-30 cm, B 100 g ai/ha): 10% | % herbicidal activity (Zea mays; Table 5.4, ZEAMX height 25-30 cm, 7 DAT, 100 g ai/ha): 10% | % herbicidal activity (Zea mays; Table 5.5, ZEAMX height 25-30 cm, 21 DAT, 100 g ai/ha): 7% | % herbicidal activity (Zea mays; Table 5.6, ZEAMX height 25-30 cm, 28 DAT, 100 g ai/ha): 0% | % herbicidal activity (Zea mays; Table 5.7, ZEAMX height 25-30 cm, 7 DAT, 100 g ai/ha): 10% | % herbicidal activity (Zea mays; Table 5.8, ZEAMX height 25-30 cm, 21 DAT, 100 g ai/ha): 7% | % herbicidal activity (Zea mays; Table 5.9, ZEAMX height 25-30 cm, 28 DAT, 100 g ai/ha): 0% | % herbicidal activity (Lolium multiflorum; Table 5.4, 7 DAT): 20% | % herbicidal activity (Lolium multiflorum; Table 5.8, 21 DAT): 20% | % herbicidal activity (Glycine max; Table 2.1, 7 DAT): 25% | % herbicidal activity (Glycine max; Table 2.2, 21 DAT): 35% | % herbicidal activity (Glycine max; Table 2.3, 21 DAT): 40% | % herbicidal activity (Amaranthus retroflexus; Table 3.4, AMARE growth stage 31-49, 42 DAT, 80 g ai/ha): 45% | % herbicidal activity (Amaranthus retroflexus; Table 5.4, AMARE height 8-20 cm, 7 DAT, 100 g ai/ha): 30% | % herbicidal activity (Spermacoce latifolia): 27% | % herbicidal activity (Echinochloa crus-galli; Table 2.1, ECHCG growth stage 23-30, 7 DAT, 100 g ai/ha): 40% | % herbicidal activity (Echinochloa crus-galli; Table 3.1, ECHCG growth stage 23-30, 7 DAT, 80 g ai/ha): 70% | % herbicidal activity (Echinochloa crus-galli; Table 3.2, ECHCG growth stage 23-30, 21 DAT, 56 g ai/ha): 80% | % herbicidal activity (Echinochloa crus-galli; Table 3.2, ECHCG growth stage 23-30, 21 DAT, 80 g ai/ha): 80% | % herbicidal activity (Echinochloa crus-galli; Table 4.1, ECHCG growth stage 23-30, height 15-20 cm, 7 DAT, 100 g ai/ha): 40% | % herbicidal activity (Echinochloa crus-galli; Table 5.4, ECHCG height 15-20 cm, 7 DAT, 100 g ai/ha): 40% | % herbicidal activity (Setaria verticillata; Table 2.1, 7 DAT, 100 g ai/ha): 20% | % herbicidal activity (Setaria verticillata; Table 3.4, 42 DAT, 56 g ai/ha): 20% | % herbicidal activity (Amaranthus hybridus): 30% | % herbicidal activity (Datura stramonium; Table 2.1, DATST growth stage 14-16, 7 DAT): 25% | % herbicidal activity (Datura stramonium; Table 2.3, DATST growth stage 14-16, 21 DAT): 50% | % herbicidal activity (Datura stramonium; Table 4.2, DATST growth stage 14-16, height 5-10 cm, 42 DAT): 50% | % herbicidal activity (Ipomoea triloba): 19%
